From patent US20110130432A1, “Heterocyclic Carboxamides For Use As Thrombin Inhibitors” (ASTRAZENECA AB, priority 2008, published 2011) come the findings set out here.

Usually IC50 stands for the concentration that inhibits the measured activity by half. A higher IC50 goes with weaker potency.

For the assay, the target named is T1, Human α-thrombin (Homo sapiens, UniProt P00734).
T1 construct: Human α-thrombin; purchased Sigma Chemical Co. or Hematologic Technologies
Put plainly: Test A: Determination of Thrombin Inhibition with a Chromogenic, Robotic Assay. The format is biochemical. The settings on record: chromogenic substrate S-2366 0.30 mmol/L, α-thrombin 0.020 NIHU/mL, 40 minutes incubation at 37° C. Here is the method: Determination of Thrombin Inhibition with a Chromogenic, Robotic Assay
The thrombin inhibitor potency is measured with a chromogenic substrate method, in a Plato 3300 robotic microplate processor (Rosys AG, CH-8634 Hombrechtikon, Switzerland), using 96-well, half volume microtitre plates (Costar, Cambridge, Mass., USA; Cat No 3690). Stock solutions of test substance in DMSO (72 μL), 0.1-1 mmol/L, are diluted serially 1:3 (24+48 μL) with DMSO to obtain ten different concentrations, which are analyzed as samples in the assay. 2 μL of test sample is diluted with 124 μL assay buffer, 12 μL of chromogenic substrate solution (S-2366, Chromogenix, Mölndal, Sweden) in assay buffer and finally 12 μL of α-thrombin solution (Human α-thrombin, Sigma Chemical Co. or Hematologic Technologies) in assay buffer, are added, and the samples mixed. The final assay concentrations are: test substance […], S-2366 0.30 mmol/L, α-thrombin 0.020 NIHU/mL The linear absorbance increment during 40 minutes incubation at 37° C. is used for calculation of percentage inhibition for the test samples, as compared to blanks without inhibitor. The IC50 value, corresponding to the inhibitor concentration which causes 50% inhibition of the thrombin activity, is calculated from a log concentration vs. % inhibition curve.
Turning to `O=C(NCc1cc(Cl)ccc1-n1cnnn1)[C@@H]1CC=NN1C(=O)C(O)c1cccc(F)c1F` (stereo partly drawn) [Example 2, (5S)—N-[5-Chloro-2-(1H-tetrazol-1-yl)benzyl]-1-[(2,3-difluorophenyl)(hydroxy)acetyl]-4,5-dihydro-1H-pyrazole-5-carboxamide], the IC50 is 0.034 µM. This lies in the double-digit nanomolar range.

As to `O=C(NCc1cc(Cl)ccc1-n1cnnn1)[C@@H]1CC=NN1C(=O)C(O)c1cc(F)cc(F)c1` (stereo partly drawn) [Example 4, (5S)—N-[5-Chloro-2-(1H-tetrazol-1-yl)benzyl]-1-[(3,5-difluorophenyl)(hydroxy)acetyl]-4,5-dihydro-1H-pyrazole-5-carboxamide], the IC50 was 0.018 µM.

On to `O=C(NCc1cc(Cl)ccc1-n1cnnn1)[C@@H]1CC=NN1C(=O)[C@H](O)C1CCCC1` [Example 5, (5S)—N-[5-Chloro-2-(1H-tetrazol-1-yl)benzyl]-1-[(2R)-2-cyclopentyl-2-hydroxyacetyl]-4,5-dihydro-1H-pyrazole-5-carboxamide], for which the IC50 is 0.024 µM.

On to `O=C(NCc1cc(Cl)ccc1-n1cnnn1)[C@@H]1CC=NN1C(=O)C(O)c1ccc(F)cc1F` (stereo partly drawn) [Example 6, (5S)—N-[5-Chloro-2-(1H-tetrazol-1-yl)benzyl]-1-[(2,4-difluorophenyl)(hydroxy)acetyl]-4,5-dihydro-1H-pyrazole-5-carboxamide], for which the IC50 was 0.035 µM.

In turn, `O=C(NCc1cc(Cl)ccc1-n1cnnn1)[C@@H]1CC=NN1C(=O)C1(O)CCOc2ccccc21` (stereo partly shown) [Example 12] came in with an IC50 of 0.13 µM.

As for `CC(C)(C)C[C@@H](N)C(=O)N1N=CC[C@H]1C(=O)NCc1cc(Cl)ccc1-n1cnnn1` [Example 18, (5S)—N-[5-Chloro-2-(1H-tetrazol-1-yl)benzyl]-1-(4-methyl-D-leucyl)-4,5-dihydro-1H-pyrazole-5-carboxamide], it took 0.0035 µM to reach half-maximal inhibition (IC50). Against the preceding molecule, the IC50 is about 37-fold lower.

Turning to `O=C(NCc1cc(Cl)ccc1-n1cnnn1)[C@@H]1CC=NN1C(=O)[C@H](O)CC1CC1` [Example 19, (5S)—N-[5-Chloro-2-(1H-tetrazol-1-yl)benzyl]-1-[(2R)-3-cyclopropyl-2-hydroxypropanoyl]-4,5-dihydro-1H-pyrazole-5-carboxamide], the IC50 stood at 0.031 µM. Compared with the last molecule, the IC50 is about 8.9-fold higher.

Molecule `CC(=O)O[C@@H](C(=O)N1N=CC[C@H]1C(=O)NCc1cc(Cl)ccc1-n1cnnn1)c1ccc(F)cc1` [Example 23, [(1R)-2-[(5S)-5-[[5-Chloro-2-(tetrazol-1-yl)phenyl]methylcarbamoyl]-4,5-dihydropyrazol-1-yl]-1-(4-fluorophenyl)-2-oxo-ethyl]acetate] displayed an IC50 of 0.193 µM.

The molecule `CC(C)CC(=O)O[C@@H](C(=O)N1N=CC[C@H]1C(=O)NCc1cc(Cl)ccc1-n1cnnn1)c1ccc(F)cc1` [Example 24, (1R)-2-[(5S)-5-{[5-Chloro-2-(1H-tetrazol-1-yl)benzyl]carbamoyl}-4,5-dihydro-1H-pyrazol-1-yl]-1-(4-fluorophenyl)-2-oxoethyl 3-methylbutanoate] had an IC50 of 0.14 µM. This IC50 and that of the molecule before are within 1.5-fold of each other.

Regarding `CCCC(=O)O[C@@H](C(=O)N1N=CC[C@H]1C(=O)NCc1cc(Cl)ccc1-n1cnnn1)c1ccc(F)cc1` [Example 25, (1R)-2-[(5S)-5-{[5-Chloro-2-(1H-tetrazol-1-yl)benzyl]carbamoyl}-4,5-dihydro-1H-pyrazol-1-yl]-1-(4-fluorophenyl)-2-oxoethyl butanoate], the midpoint of inhibition, the IC50, lay at 0.16 µM.

Molecule `CC(C)C(=O)O[C@@H](C(=O)N1N=CC[C@H]1C(=O)NCc1cc(Cl)ccc1-n1cnnn1)c1ccc(F)cc1` [Example 26, (1R)-2-[(5S)-5-{[5-Chloro-2-(1H-tetrazol-1-yl)benzyl]carbamoyl}-4,5-dihydro-1H-pyrazol-1-yl]-1-(4-fluorophenyl)-2-oxoethyl 2-methylpropanoate] had an IC50 of 0.15 µM.

In the case of `CCCCC(=O)O[C@@H](C(=O)N1N=CC[C@H]1C(=O)NCc1cc(Cl)ccc1-n1cnnn1)c1ccc(F)cc1` [Example 27, (1R)-2-[(5S)-5-{[5-Chloro-2-(1H-tetrazol-1-yl)benzyl]carbamoyl}-4,5-dihydro-1H-pyrazol-1-yl]-1-(4-fluorophenyl)-2-oxoethyl pentanoate], the IC50 turned out to be 0.14 µM.

In turn, `O=C(O[C@@H](C(=O)N1N=CC[C@H]1C(=O)NCc1cc(Cl)ccc1-n1cnnn1)c1ccc(F)cc1)c1ccccc1` [Example 29, (1R)-2-[(5S)-5-{[5-Chloro-2-(1H-tetrazol-1-yl)benzyl]carbamoyl}-4,5-dihydro-1H-pyrazol-1-yl]-1-(4-fluorophenyl)-2-oxoethyl benzoate] came in with an IC50 of 0.013 µM.

Molecule `CCC(=O)Oc1cc(C)cc(C)c1C(C)(C)CC(=O)O[C@@H](C(=O)N1N=CC[C@H]1C(=O)NCc1cc(Cl)ccc1-n1cnnn1)c1ccc(F)cc1` [Example 30, (R)-2-((S)-5-(5-Chloro-2-(1H-tetrazol-1-yl)benzylcarbamoyl)-4,5-dihydro-1H-pyrazol-1-yl)-1-(4-fluorophenyl)-2-oxoethyl 3-(2,4-dimethyl-6-(propionyloxy)phenyl)-3-methylbutanoate] registered a half-inhibitory concentration (IC50) of 0.66 µM. Against the preceding molecule, the IC50 is about 51-fold higher.

Take `O=C(NCc1cc(Cl)ccc1-n1cnnn1)[C@@H]1CCON1C(=O)[C@H](O)c1ccc(F)cc1` [Example 31, (3S)—N-[5-Chloro-2-(1H-tetrazol-1-yl)benzyl]-2-[(2R)-2-(4-fluorophenyl)-2-hydroxyacetyl]isoxazolidine-3-carboxamide]: the IC50 was 0.0097 µM.

Regarding `CC(C)(C)OC[C@@H](N)C(=O)N1OCC[C@H]1C(=O)NCc1cc(Cl)ccc1-n1cnnn1` [Example 32, (3S)-2-(O-tert-Butyl-D-seryl)-N-[5-chloro-2-(1H-tetrazol-1-yl)benzyl]isoxazolidine-3-carboxamide], the IC50 came to 0.17 µM. Compared with the last molecule, the IC50 is about 18-fold higher.

The molecule `O=C(NCc1cc(Cl)ccc1-n1cnnn1)[C@@H]1CCON1C(=O)C(O)c1ccc(F)cc1F` (stereo partly drawn) [Example 33, (3S)—N-[5-Chloro-2-(1H-tetrazol-1-yl)benzyl]-2-[(2,4-difluorophenyl)(hydroxy)acetyl]isoxazolidine-3-carboxamide] yielded an IC50 of 0.1 µM.

With `O=C(NCc1cc(Cl)ccc1-n1cnnn1)[C@@H]1CCON1C(=O)C(O)c1cccc(F)c1F` (stereo partly drawn) [Example 34, (3S)—N-[5-Chloro-2-(1H-tetrazol-1-yl)benzyl]-2-[(2,3-difluorophenyl)(hydroxy)acetyl]isoxazolidine-3-carboxamide], the IC50 is 0.16 µM. Against the preceding molecule, the IC50 is about 1.6-fold higher.

Turning to `O=C(NCc1cc(Cl)ccc1-n1cnnn1)[C@@H]1CCON1C(=O)C(O)c1cc(F)cc(F)c1` (stereo partly drawn) [Example 35, (3S)—N-[5-Chloro-2-(1H-tetrazol-1-yl)benzyl]-2-[(3,5-difluorophenyl)(hydroxy)acetyl]isoxazolidine-3-carboxamide], the IC50 came out at 0.07 µM.

The molecule `O=C(NCc1cc(Cl)ccc1-n1cnnn1)[C@@H]1CCON1C(=O)C(O)c1ccccc1F` (stereo partly drawn) [Example 36, (3S)—N-[5-Chloro-2-(1H-tetrazol-1-yl)benzyl]-2-[(2-fluorophenyl)(hydroxy)acetyl]isoxazolidine-3-carboxamide] registered an IC50 of 0.094 µM.

For the molecule `Cc1cccc(C(O)C(=O)N2OCC[C@H]2C(=O)NCc2cc(Cl)ccc2-n2cnnn2)c1` (stereo partly drawn) [Example 37, (3S)—N-[5-Chloro-2-(1H-tetrazol-1-yl)benzyl]-2-[hydroxy(3-methylphenyl)acetyl]isoxazolidine-3-carboxamide], the IC50 was 0.016 µM.

`CCCC[C@@H](O)C(=O)N1OCC[C@H]1C(=O)NCc1cc(Cl)ccc1-n1cnnn1` [Example 38, (3S)—N-[5-Chloro-2-(1H-tetrazol-1-yl)benzyl]-2-[(2R)-2-hydroxyhexanoyl]isoxazolidine-3-carboxamide]: half-maximal inhibition (IC50) required 0.043 µM.

With `CC(C)CC[C@@H](O)C(=O)N1OCC[C@H]1C(=O)NCc1cc(Cl)ccc1-n1cnnn1` [Example 39, (3S)—N-[5-Chloro-2-(1H-tetrazol-1-yl)benzyl]-2-[(2R)-2-hydroxy-5-methylhexanoyl]isoxazolidine-3-carboxamide], half-maximal inhibition (IC50) required 0.013 µM.

Regarding `CC(C)(C)OC[C@@H](O)C(=O)N1OCC[C@H]1C(=O)NCc1cc(Cl)ccc1-n1cnnn1` [Example 40, (3S)-2-[(2R)-3-tert-Butoxy-2-hydroxypropanoyl]-N-[5-chloro-2-(1H-tetrazol-1-yl)benzyl]isoxazolidine-3-carboxamide], the IC50 turned out to be 0.044 µM.

`O=C(NCc1cc(Cl)ccc1-n1cnnn1)[C@@H]1CCON1C(=O)[C@H](O)C1CCCC1` [Example 41, (3S)—N-[5-Chloro-2-(1H-tetrazol-1-yl)benzyl]-2-[(2R)-2-cyclopentyl-2-hydroxyacetyl]isoxazolidine-3-carboxamide] displayed an IC50 of 0.041 µM.

`O=C(NCc1cc(Cl)ccc1-n1cnnn1)[C@@H]1CCON1C(=O)[C@H](O)C1CCCCC1` [Example 42, (3S)—N-[5-Chloro-2-(1H-tetrazol-1-yl)benzyl]-2-[(2R)-2-cyclohexyl-2-hydroxyacetyl]isoxazolidine-3-carboxamide] had an IC50 of 0.021 µM. This IC50 lies about 2-fold lower than the previous one.

In the case of `CC1(C[C@@H](O)C(=O)N2OCC[C@H]2C(=O)NCc2cc(Cl)ccc2-n2cnnn2)CC1` [Example 43, (3S)—N-[5-Chloro-2-(1H-tetrazol-1-yl)benzyl]-2-[(2R)-2-hydroxy-3-(1-methylcyclopropyl)propanoyl]isoxazolidine-3-carboxamide], the IC50 came out at 0.068 µM. This IC50 lies about 3.2-fold higher than the previous one.

In the case of `O=C(NCc1cc(Cl)ccc1-n1cnnn1)[C@@H]1CCON1C(=O)[C@H](O)Cc1ccccc1` [Example 47, (3S)—N-[5-Chloro-2-(1H-tetrazol-1-yl)benzyl]-2-[(2R)-2-hydroxy-3-phenylpropanoyl]isoxazolidine-3-carboxamide], 0.08 µM corresponded to half-maximal inhibition (IC50).
